According to ChEMBL document CHEMBL1139805, “Marine natural products from the Turkish sponge Agelas oroides that inhibit the enoyl reductases from Plasmodium falciparum, Mycobacterium tuberculosis and Escherichia coli” (Bioorg Med Chem, 2007):
In brackets after ≈: the same amount, converted by molar mass.

Legend:
[1] = system: Trypanosoma cruzi; test: Antitrypanosomal activity against Trypanosoma cruzi after 72 hrs; type: functional, organism-based
[2] = biological target: T1, Enoyl-acyl-carrier protein reductase (Plasmodium falciparum, UniProt Q965D5); test: Inhibition of Plasmodium falciparum FabI
T1 sequence (Q965D5 whole entry): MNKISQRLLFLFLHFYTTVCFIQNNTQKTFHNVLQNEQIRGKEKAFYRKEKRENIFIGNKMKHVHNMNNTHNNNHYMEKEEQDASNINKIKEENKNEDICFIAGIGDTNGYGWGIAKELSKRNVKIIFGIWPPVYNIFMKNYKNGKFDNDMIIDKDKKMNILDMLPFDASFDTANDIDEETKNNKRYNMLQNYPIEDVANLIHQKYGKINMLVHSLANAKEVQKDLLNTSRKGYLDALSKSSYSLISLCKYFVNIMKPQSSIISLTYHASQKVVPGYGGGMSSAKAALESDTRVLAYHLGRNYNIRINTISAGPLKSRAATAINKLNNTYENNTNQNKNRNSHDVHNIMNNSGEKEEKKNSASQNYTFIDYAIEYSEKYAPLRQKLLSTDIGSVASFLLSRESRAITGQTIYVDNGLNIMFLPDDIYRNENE

[3] = system: Leishmania donovani; test: Antileishmanial activity against Leishmania donovani after 72 hrs by Alamar blue assay; type: functional, organism-based
[4] = system: L6; test: Cytotoxicity against rat L6 cells after 72 hrs; type: cell-based; settings: L6, 72 h
[5] = system: Trypanosoma brucei rhodesiense; test: Antitrypanosomal activity against Trypanosoma brucei rhodesiense after 72 hrs by Alamar blue assay; type: functional, organism-based
[6] = system: Plasmodium falciparum; test: Antimalarial activity against chloroquine-resistant, pyrimethamine-resistant Plasmodium falciparum K1 after 48 hrs; type: functional, organism-based; settings: K1, 48 h
[7] = biological target: T1, Enoyl-acyl-carrier protein reductase; test: Inhibition of Plasmodium falciparum FabI in presence of variable NADH levels
[8] = biological target: T1, Enoyl-acyl-carrier protein reductase; test: Inhibition of Plasmodium falciparum FabI in presence of variable crotonyl-coA level

| Compound | IC50 [1] | IC50 [2] | IC50 [3] | IC50 [4] | IC50 [5] | IC50 [6] | Ki [7] | Ki [8] |
| --- | --- | --- | --- | --- | --- | --- | --- | --- |
| CC[C@@H](CC[C@@H](C)[C@H]1CC[C@H]2C3=CC[C@H]4C[C@@H](O)CC[C@]4(C)[C@H]3CC[C@]12C)C(C)C | > 30 µg/mL | 43.4 µM | 29.5 µg/mL (≈ 71.1 µM) | > 90 µg/mL | 14.2 µg/mL (≈ 34.2 µM) | 16.1 µg/mL (≈ 38.8 µM) | – | – |
| O=C(O)C(F)(F)F.O=C(O)c1cc(Br)c(Br)[nH]1 | > 30 µg/mL | 104 µM | 5.8 µg/mL | > 90 µg/mL | 25.2 µg/mL | 49.9 µg/mL | – | – |
| NC/C=C/c1cnc(N)[nH]1 | 2.5 µg/mL (≈ 18.1 µM) | > 724 µM | 13.1 µg/mL (≈ 94.8 µM) | 0.7 µg/mL (≈ 5.07 µM) | 2.4 µg/mL (≈ 17.4 µM) | 7.4 µg/mL (≈ 53.6 µM) | – | – |
| COC(=O)c1cc(Br)c(Br)[nH]1 | > 30 µg/mL | > 353 µM | > 30 µg/mL | > 90 µg/mL | 13.3 µg/mL (≈ 47 µM) | > 50 µg/mL | – | – |
| O=C(O)c1cc(Br)c(Br)[nH]1 | > 30 µg/mL | > 372 µM | 7.9 µg/mL (≈ 29.4 µM) | > 90 µg/mL | 20.9 µg/mL (≈ 77.7 µM) | > 50 µg/mL | – | – |
| O=C(Cn1ccnc1[N+](=O)[O-])NCc1ccccc1 [BENZNIDAZOLE] | 0.17 µg/mL (≈ 0.653 µM) | – | – | – | – | – | – | – |
| Nc1nc(N)nc(Nc2ccc([As]3SCC(CO)S3)cc2)n1 (centres undefined) [MELARSOPROL] | – | – | – | – | 0.0027 µg/mL | – | – | – |
| Nc1ncc(/C=C/CNC(=O)c2cc(Br)c(Br)[nH]2)[nH]1.O=C(O)C(F)(F)F [OROIDIN TFA SALT] | > 30 µg/mL | 9.94 µM | 15.4 µg/mL | 76.4 µg/mL | 12.2 µg/mL | 7.9 µg/mL | – | – |
| Nc1ncc(/C=C/CNC(=O)c2cc(Br)c(Br)[nH]2)[nH]1 [OROIDIN] | > 30 µg/mL | 0.771 µM | > 30 µg/mL | 88.6 µg/mL (≈ 228 µM) | 17.3 µg/mL (≈ 44.5 µM) | 3.9 µg/mL (≈ 10 µM) | 0.8 µM | 0.4 µM |
| COc1cc([C@@H]2c3cc4c(cc3[C@H](O)[C@H]3COC(=O)[C@H]23)OCO4)cc(OC)c1OC [PODOFILOX] | – | – | – | 0.009 µg/mL (≈ 0.0217 µM) | – | – | – | – |
| NCCS(=O)(=O)O [TAURINE] | > 30 µg/mL | > 799 µM | > 30 µg/mL | > 90 µg/mL | 83.4 µg/mL (≈ 666 µM) | > 50 µg/mL | – | – |
| Oc1cc(Cl)ccc1Oc1ccc(Cl)cc1Cl [TRICLOSAN] | – | 0.0484 µM | – | – | – | – | – | – |
